Reference: PubChem BioAssay (NCI)
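Briefly, cells in 96-well plates were exposed to five compound concentrations for 48 h, and endpoints were estimated by linear interpolation. The concentration for 50% growth inhibition is given as GI50. The concentration for full growth arrest is given as TGI.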

Experiments:
Assay in all cases: DTP human tumour cell line panel, 48 h
[1] = test system: TK-10 renal
[2] = test system: ACHN renal
[3] = test system: EKVX NSCLC
[4] = test system: UACC-257 melanoma
[5] = test system: SK-MEL-2 melanoma
[6] = test system: HS 578T breast
[7] = test system: PC-3 prostate
[8] = test system: HL-60(TB) leukemia
[9] = test system: LOX IMVI melanoma
[10] = test system: SF-539 CNS

| SMILES | GI50 [1] | TGI [1] | GI50 [2] | TGI [2] | GI50 [3] | TGI [3] | GI50 [4] | TGI [4] | GI50 [5] | TGI [5] | GI50 [6] | TGI [6] | GI50 [7] | TGI [7] | GI50 [8] | TGI [8] | GI50 [9] | TGI [9] | GI50 [10] | TGI [10] |
| --- | --- | --- | --- | --- | --- | --- | --- | --- | --- | --- | --- | --- | --- | --- | --- | --- | --- | --- | --- | --- |
| COc1ccc(/C=C/C(=O)c2ccc(Nc3ncnc4ccccc34)cc2)cc1OC | 8.29 µM | 62.9 µM | 13.6 µM | > 100 µM | 13.9 µM | > 100 µM | 20.3 µM | > 100 µM | 13.9 µM | 44.8 µM | 15.3 µM | > 100 µM | 4.22 µM | > 100 µM | 20.7 µM | > 100 µM | 2.81 µM | 10.4 µM | 7.73 µM | 48.8 µM |
| COC(=O)Nc1ccc2ccc3c(NC(=O)OC)ccc4ccc1c2c43 (tested in a mixture with another compound) | 16.9 µM | > 50 µM | 6.68 µM | 15 µM | 5.55 µM | > 50 µM | 21.8 µM | > 50 µM | 25.6 µM | > 50 µM | 9.01 µM | 40.4 µM | 6.89 µM | 26 µM | 9.95 µM | > 50 µM | 6.67 µM | 19 µM | 6.76 µM | 17.8 µM |
| Clc1nc(Cl)c2ncn(C/C=C\Cn3cnc4c(Cl)nc(Cl)nc43)c2n1 | 3.83 µM | 13.5 µM | 1.97 µM | 3.46 µM | 1.97 µM | 3.76 µM | 2.56 µM | 12.1 µM | 1.75 µM | 3.66 µM | 3.01 µM | 6.12 µM | 2.05 µM | 4.54 µM | 3.64 µM | > 100 µM | 1.8 µM | 3.48 µM | 2.49 µM | 5.97 µM |
| N#Cc1c(NC(=O)c2cccs2)[n+]([O-])c2ccccc2[n+]1[O-] | > 100 µM | > 100 µM | > 100 µM | > 100 µM | 93.8 µM | > 100 µM | > 100 µM | > 100 µM | > 100 µM | > 100 µM | 95.9 µM | > 100 µM | 64.9 µM | > 100 µM | > 100 µM | > 100 µM | > 100 µM | > 100 µM | > 100 µM | > 100 µM |
| FC(F)(F)c1ccc2c(c1)N(CCCN1CCN(C3CC3)CC1)c1ccccc1S2 | 13.8 µM | 27.2 µM | 10.6 µM | 24.6 µM | 6.09 µM | 22.2 µM | 5.57 µM | 19 µM | 18.9 µM | 34.9 µM | 10.3 µM | 27.1 µM | 5.81 µM | 20.2 µM | 6.03 µM | 23.3 µM | 13.7 µM | 28.3 µM | 14 µM | 29.5 µM |
| CCOC(=O)C1CCC/C1=N\N=C(N)N (stereo not given) (tested in a mixture with another compound) |  | > 100 µM |  | > 100 µM |  | > 100 µM |  | > 100 µM |  | > 100 µM |  | > 100 µM |  | > 100 µM |  | > 100 µM |  | > 100 µM |  | > 100 µM |
| Nc1cc(N)c2nc(-c3ccccc3)c(Nc3ccc(F)cc3)nc2c1 | 17.3 µM | 35.6 µM | 10.3 µM | 22.5 µM | 12 µM | 30 µM | 15.3 µM | 29 µM | 29.8 µM | > 100 µM | 19.1 µM | 58.8 µM | 11.7 µM | > 100 µM | 11.3 µM | > 100 µM | 4.81 µM | 18 µM | 11 µM | 24.6 µM |
| CC[C@@]1(O)C(=O)NCc2c1cc1n(c2=O)Cc2cc3cc4c(cc3nc2-1)OCO4 | 69.9 µM | > 100 µM | 0.398 µM | > 13.2 µM | 12.9 µM | > 87.1 µM | 14.1 µM | > 100 µM | 67.5 µM | > 100 µM | 94.1 µM | > 100 µM | 2.38 µM | > 100 µM | 0.0462 µM | 0.502 µM | 0.296 µM | 18.2 µM | 0.374 µM | 4.57 µM |
| CCCCCCCCCCCCCCCCC(C(=O)O)C(O)(CC(=O)O)C(=O)O (stereo not given) |  | > 100 µM |  | > 100 µM |  | 39.3 µM |  | > 100 µM |  | 41.4 µM |  | 58.6 µM |  | 38.8 µM |  | 34.4 µM |  | 66.3 µM |  | 89.3 µM |
| Cc1cccc(C(C)O)n1 (stereo not given) |  | > 100 µM |  | > 100 µM |  | > 100 µM |  | > 100 µM |  | > 100 µM |  | > 100 µM |  | > 100 µM |  | > 100 µM |  |  |  | > 100 µM |
| COc1ccc(NC2=C(Sc3nc(C)cc(C)n3)C(=O)N(Cc3ccccc3)C2=O)cc1Cl | > 160 µM | > 160 µM | > 160 µM | > 160 µM | 157 µM | > 160 µM | > 160 µM | > 160 µM | 138 µM | > 160 µM | 67.9 µM | > 160 µM | 32.9 µM | > 160 µM | 140 µM | > 160 µM | > 160 µM | > 160 µM | > 160 µM | > 160 µM |
| CCCCCC(=O)N1c2ccccc2NC2=C(C(=O)CC(c3ccc(OC)c(OC)c3)C2)C1c1ccc(C(F)(F)F)cc1 (stereo not given) | > 100 µM | > 100 µM | > 100 µM | > 100 µM |  |  | > 100 µM | > 100 µM | > 100 µM | > 100 µM | > 100 µM | > 100 µM | 6.25 µM | > 100 µM | > 100 µM | > 100 µM | > 100 µM | > 100 µM | > 100 µM | > 100 µM |
| CCOC(=O)c1cc2c(cc1Cl)SC(N(c1ccc(F)cc1)S(=O)(=O)c1ccc(OC)cc1)=NS2(=O)=O | 18.8 µM | 54.5 µM | 18.5 µM | 42.1 µM | 21.2 µM | 51.8 µM |  |  | 12.4 µM | 35.1 µM | 20.7 µM | 51.3 µM | 11.3 µM | 25.5 µM | 18.5 µM | 42.4 µM | 12.9 µM | 25.6 µM | 9.61 µM | 22.7 µM |
